Laboratory results: paper PMC11881035, “^68Ga-Labeled Glycopeptides as Effective Tools for Liver Function Imaging” (Molecular Pharmaceutics, 2025)
Where a SMILES comes first, the peptide text is derived from it. The star is where a group is joined. X1 = O=C(CCCCc1cn([C@@H]2O[C@H](CO)[C@H](O)[C@H](O)[C@H]2O)nn1)*; NODAGA = O=C(O)CN1CCN(CC(=O)O)CCN(C(CCC(=O)*)C(=O)O)CC1; GABA = NCCCC(=O)O

Tested on: healthy male C57BL6 mouse
Assay: PET/MR imaging in C57BL6 mice, time activity curves
Type: in vivo
Experimental: The ^68Ge/^68Ga generator, devices for analytical HPLC, semipreparative HPLC, mass spectrometry, radio-thin layer chromatography, gamma counter and animal models for biodistribution and imaging studies including the image reconstruction procedures were the same as described before.[22] Stability assays in PBS and human blood serum, protein binding as well as determination of log D values followed established protocols.[25] Binding affinities (IC50) of selected ligands were determined in an isolated receptor-based assay according to a previously published procedure with minor modifications.[22] Dilutions of nonradioactive complexes were made with PBS + 0.1% BSA (10^–5–10^–12 M). Preparation of [^125I]I-Asialoorosomucoid which serves as the radioactive standard ligand has been published recently.[21]
Animal experiments were performed in accordance with the Austrian animal experiments law (BGBl. I Nr. 114/2012) and the institution’s animal welfare standards as approved by the Austrian Federal Ministry of Education, Science and Research (BMBWF, 2022–0.311.708). Imaging experiments were conducted at Werner Siemens Imaging Center (Tübingen, Germany) according to the German animal welfare act as approved by the local authorities (R5/19 G, R09/21 G). […]

NC(=O)CNC(=O)CNC(=O)[C@H](CCCCNC(=O)CCCCc1cn([C@@H]2O[C@H](CO)[C@H](O)[C@H](O)[C@H]2O)nn1)NC(=O)CNC(=O)CNC(=O)[C@H](CCCCNC(=O)CCCCc1cn([C@@H]2O[C@H](CO)[C@H](O)[C@H](O)[C@H]2O)nn1)NC(=O)CNC(=O)CNC(=O)[C@H](CCCCNC(=O)CCCCc1cn([C@@H]2O[C@H](CO)[C@H](O)[C@H](O)[C@H]2O)nn1)NC(=O)CNC(=O)CNC(=O)[C@H](CCCCNC(=O)CCCCc1cn([C@@H]2O[C@H](CO)[C@H](O)[C@H](O)[C@H]2O)nn1)NC(=O)CNC(=O)CNC(=O)[C@H](CCCCNC(=O)CCCCc1cn([C@@H]2O[C@H](CO)[C@H](O)[C@H](O)[C@H]2O)nn1)NC(=O)CNC(=O)CNC(=O)[C@H](CCCCNC(=O)CCCCc1cn([C@@H]2O[C@H](CO)[C@H](O)[C@H](O)[C@H]2O)nn1)NC(=O)CNC(=O)CNC(=O)[C@H](CCCCNC(=O)CCCCc1cn([C@@H]2O[C@H](CO)[C@H](O)[C@H](O)[C@H]2O)nn1)NC(=O)CNC(=O)CNC(=O)[C@H](CCCCNC(=O)CCCCc1cn([C@@H]2O[C@H](CO)[C@H](O)[C@H](O)[C@H]2O)nn1)NC(=O)CNC(=O)CNC(=O)[C@H](CCCCNC(=O)CCCCc1cn([C@@H]2O[C@H](CO)[C@H](O)[C@H](O)[C@H]2O)nn1)NC(=O)CCCNC(=O)CCC(C(=O)O)N1CCN(CC(=O)O)CCN(CC(=O)O)CC1 (some centres unmarked) [[^68Ga]Ga-NODAGA-NonaLysan, metal not drawn] ({NODAGA-GABA}-K(X1)GGK(X1)GGK(X1)GGK(X1)GGK(X1)GGK(X1)GGK(X1)GGK(X1)GGK(X1)GG-NH2)
time of fast liver accumulation (PET/MR, C57BL6 mouse, 1 MBq (100 pmol)): ≤ 2 min | time of rapid tracer accumulation in liver (time-activity curves) (followed by stable retention): ≤ 5 min
